Reference: patent US5686613A, “Tridentate metal ligands of certain pyridine phosphonic acids” (priority 1996, dated 1997)
Where two headings read alike, the source gives them in different places. Each block holds one compound with its values, some of them ahead of it.

Assays:
[1] = Degradation of Fe(III)-2,6 PDPA in H2S redox reaction without stabilizer (uv-vis spectrophotometric analysis), pH 8.5 and 25° C.; assay type: physicochemical; details: pH 8.5, 25° C., no stabilizer
Procedure: Both ligands were evaluated in the iron chelate form.
The concentration of 2,6 PDPA was analyzed by the following uv-vis spectrophotometric measurements: to 1.0 mL of solution taken from the continuous reactor, 150 mg of NaOH in 15 mL water was added with stirring. The mixture was heated with a steam-bath for 2 hr, then allowed to stand at room temperature for 2 hr. […] The filtrate combined with the washings, was transferred to a 50 mL volumetric flask, and diluted to […] with 6M HCl. This solution was ready for uv-vis spectrophotometric analysis.

[2] = Degradation of Fe(III) chelate ligand in H2S redox reaction in the presence of thiosulfate stabilizer; assay type: physicochemical; details: for NTA (M) (concentration remaining) / NTA, % Remaining: Fe(III)-NTA, pH 8.5, 32 g Na2S2O3 per liter
Excerpt: Table 3 and FIG. 5 contain the data obtained from a run with the continuous glass reaction apparatus described above.

[3] = Procedure: The degradation resistances of pyridine-2-phosphonic-6-carboxylic acid (2P6C) and pyridine-2,6-diphosphonic acid (2,6-PDPA), prepared by the synthesis schemes presented in FIGS. 2 and 3, respectively, were evaluated as described below. Both ligands were evaluated in the iron chelate form.
1. Degradation of Fe(III)-2P6C at pH 8.5 and 25° C. (Fe(III)0.018M, 2P6C 0.036 M; H2 S flow rate=2.0 mL/min.)
(§1) The redox reaction was carried out in a continuous glass reaction apparatus as described in D. Chen, R. J. Motekaitis, A. E. Martell and D. McManus, Can. J. Chem., 71, 1524 (1993) which is incorporated herein by reference.
Preparation of iron-free sample. To 4.0 mL of solution taken from the continuous reactor, 100 mg of NaOH in 20 mL water were added dropwise with stirring. The mixture was heated to 70°-80° C. for 30 min. The Fe(OH)3 that precipitated was filtered off carefully and was washed several times with water. The filtrate was combined with the washings and was transferred to a 50 mL volumetric flask. The pH of the solution was adjusted with acid to 4.2, and then diluted with distilled water to 50 mL.
Operating conditions. Analytical column: I-SIL 5 C8, reverse phase 4.5×150 mm; Column temperature: ambient; mobile phase flow rate: 1.5 mL/min; Detector: UV at 275 nm, 0.20 AUFS; Sample volume: 20 microliter; Recorder: 10 mV full-scale; Chart speed: 0.5 cm/min. The mobile phase contained: 0.0010 M Cu(II), 60:40 H2 O: MeOH, 2% HOAc, 0.2% CH3 (CH2)15 (CH3)3 NBr, adjusted to pH 4.2 With NaOH solution.
Using the same test conditions described above, the degradation of nitrilotriacetic acid (NTA) was evaluated.

[4] = remark: listed apart in the source
Procedure: as §1
Experimental runs were also conducted with 2P6C, with and without K2 SO3 added as a stabilizer.

[5] = iron chelate, cited from earlier work
[6] = h2s redox reactor, 100 h, 36000 µM, pH 8.5

Structure (SMILES): O=P(O)(O)c1cccc(P(=O)(O)O)n1 [2,6-PDPA, pyridine-2,6-diphosphonic acid]
- degradation ([1]; 100 hr, Fe(III) 0.0090 M, 2,6 PDPA 0.018 M): no significant degradation was observed
- degradation, estimated ([1]; over 100 hr, 18000 µM): less than 5%
- degradation in the presence of thiosulfate ([2]; after 100 hr of operation, thiosulfate): no detectable degradation was observed

Structure (SMILES): O=C(O)c1cccc(P(=O)(O)O)n1 [2P6C, pyridine-2-phosphonic-6-carboxylic acid]
- degradation compared with NTA [3]: degrades much more slowly than NTA
- 2P6C % Remaining ([3]; 0 min, 36000 uM, pH 8.5): 100.0%
- 2P6C % Remaining ([3]; h2s redox reactor, 25 h, 36000 µM, pH 8.5): 94.4%
- 2P6C % Remaining ([3]; h2s redox reactor, 50 h, 36000 µM, pH 8.5): 86.1%
- 2P6C % Remaining ([3]; h2s redox reactor, 84 h, 36000 µM, pH 8.5): 83.3%
- 2P6C % Remaining [3, 6]: 80.6%
- 2P6C lost after redox reaction [3, 6]: about 20%
- degradation during the redox reaction ([3]; pH 8.5): degrades very slowly
- effect of hydroxylation/degradation on the process ([3]; pH 8.5): no deleterious effect on the process is observed
- degradation in the presence of thiosulfate [2]: no detectable degradation was observed
- 2P6C % Remaining ([4]; 0 min): 100.0%
- 2P6C % Remaining ([4]; h2s reactor, 5% k2so3, 2 h): 100.0%
- 2P6C % Remaining ([4]; h2s reactor, 5% k2so3, 20 h): 97.7%
- 2P6C % Remaining ([4]; h2s reactor, 5% k2so3, 44 h): 97.6%
- 2P6C % Remaining ([4]; h2s reactor, 5% k2so3, 68 h): 97.4%
- 2P6C % Remaining ([4]; h2s reactor, 5% k2so3, 92 h): 98.9%

- NTA, % Remaining ([3]; 0 min, pH 8.5): 100.0%
- NTA, % Remaining ([3]; h2s redox reactor, 12 h, pH 8.5): 75.7%
- NTA, % Remaining ([3]; h2s redox reactor, 20 h, pH 8.5): 65.7%
- NTA, % Remaining ([3]; h2s redox reactor, 30 h, pH 8.5): 52.4%
- NTA, % Remaining ([3]; h2s redox reactor, 40 h, pH 8.5): 49.4%
- NTA, % Remaining ([3]; h2s redox reactor, 64 h, pH 8.5): 32.9%
- NTA, % Remaining ([3]; h2s redox reactor, 77 h, pH 8.5): 26.2%
- degradation with thiosulfate [2]: much slower when thiosulfate is added
- rate of degradation with thiosulfate [2]: still measurable
- NTA (M) (concentration remaining) ([2]; 0 hr): 0.0362 M
- NTA, % Remaining ([2]; 0 hr): 100.0%
- NTA (M) (concentration remaining) ([2]; 14.0 hr): 0.0344 M
- NTA, % Remaining ([2]; 14.0 hr): 95.0%
- NTA (M) (concentration remaining) ([2]; 26.0 hr): 0.0333 M
- NTA, % Remaining ([2]; 26.0 hr): 92.0%
- NTA (M) (concentration remaining) ([2]; 39.0 hr): 0.0320 M
- NTA, % Remaining ([2]; 39.0 hr): 88.4%
- NTA (M) (concentration remaining) ([2]; 50.0 hr): 0.0317 M
- NTA, % Remaining ([2]; 50.0 hr): 87.6%
- NTA (M) (concentration remaining) ([2]; 66.0 hr): 0.0306 M
- NTA, % Remaining ([2]; 66.0 hr): 84.5%
- NTA (M) (concentration remaining) ([2]; 80.0 hr): 0.0297 M
- NTA, % Remaining ([2]; 80.0 hr): 82.0%
- NTA (M) (concentration remaining) ([2]; 99.0 hr): 0.0293 M
- NTA, % Remaining ([2]; 99.0 hr): 80.9%
Structure (SMILES): O=C(O)CN(CC(=O)O)CC(=O)O [NTA, nitrilotriacetic acid]

Structure (SMILES): O=C(O)c1cccc(C(=O)O)n1 [2,6-pyridinedicarboxylic acid]
- precipitation of ferric hydroxide from ferric chelate ([5]; normal pH of the process): unacceptable precipitation of ferric hydroxide
- resistance to catalyst degradation [5]: good resistance to catalyst degradation
